Measurements: the NIST ThermoML archive (doi:10.1007/s10765-014-1730-1)

Details: Vibrating tube method; for specific volume: Gas; for mass density: Liquid

F/C=C\C(F)(F)F [(Z)-1,3,3,3-tetrafluoro-1-propene]
Details	mass density [kg/m3]	specific volume [m3/kg]
328.15 K, 202.5 kPa	–	0.111
328.15 K, 209.8 kPa	–	0.107
328.15 K, 232.5 kPa	–	0.095
328.15 K, 370.9 kPa	–	0.057
330.15 K, 287.2 kPa	–	0.076
333.15 K, 90.7 kPa	–	0.26
333.15 K, 126.2 kPa	–	0.185
333.15 K, 206.1 kPa	–	0.111
333.15 K, 213.5 kPa	–	0.107
333.15 K, 236.7 kPa	–	0.096
333.15 K, 378.4 kPa	–	0.057
333.15 K, 30992 kPa	1237.9	–
333.15 K, 31993 kPa	1240.4	–
333.16 K, 3769 kPa	1141.2	–
333.16 K, 4787 kPa	1146.4	–
333.16 K, 5795 kPa	1151.4	–
333.16 K, 6804 kPa	1156.2	–
333.16 K, 7816 kPa	1160.8	–
333.16 K, 8825 kPa	1165.2	–
333.16 K, 9828 kPa	1169.5	–
333.16 K, 10837 kPa	1173.6	–
333.16 K, 11848 kPa	1177.7	–
333.16 K, 12859 kPa	1181.6	–
333.16 K, 13868 kPa	1185.4	–
333.16 K, 15876 kPa	1192.7	–
333.16 K, 16881 kPa	1196.2	–
333.16 K, 17896 kPa	1199.7	–
333.16 K, 18911 kPa	1203	–
333.16 K, 19925 kPa	1206.3	–
333.16 K, 20935 kPa	1209.5	–
333.16 K, 21937 kPa	1212.6	–
333.16 K, 23957 kPa	1218.6	–
333.16 K, 24963 kPa	1221.5	–
333.16 K, 25970 kPa	1224.4	–
333.16 K, 26975 kPa	1227.2	–
333.16 K, 27976 kPa	1229.9	–
333.16 K, 28983 kPa	1232.6	–
333.16 K, 29987 kPa	1235.2	–
333.16 K, 32999 kPa	1243	–
333.16 K, 34003 kPa	1245.5	–
333.17 K, 574 kPa	1123.1	–
333.17 K, 754 kPa	1124.2	–
333.17 K, 1756 kPa	1130.2	–
333.17 K, 2756 kPa	1135.8	–
333.17 K, 14875 kPa	1189.1	–
333.17 K, 22950 kPa	1215.6	–
335.15 K, 292.6 kPa	–	0.077
338.15 K, 92.1 kPa	–	0.26
338.15 K, 128.2 kPa	–	0.185
338.15 K, 209.7 kPa	–	0.111
338.15 K, 217.2 kPa	–	0.107
338.15 K, 240.9 kPa	–	0.096
338.15 K, 385.9 kPa	–	0.057
340.15 K, 298 kPa	–	0.077
343.14 K, 680 kPa	1090.7	–
343.14 K, 761 kPa	1091.4	–
343.14 K, 1766 kPa	1098.6	–
343.14 K, 2771 kPa	1105.3	–
343.14 K, 3798 kPa	1111.8	–
343.14 K, 4828 kPa	1117.9	–
343.14 K, 5833 kPa	1123.5	–
343.14 K, 6839 kPa	1129	–
343.14 K, 7846 kPa	1134.2	–
343.14 K, 8850 kPa	1139.2	–
343.14 K, 9856 kPa	1144	–
343.14 K, 10867 kPa	1148.6	–
343.14 K, 11874 kPa	1153.1	–
343.14 K, 12884 kPa	1157.5	–
343.14 K, 13894 kPa	1161.7	–
343.14 K, 14898 kPa	1165.7	–
343.14 K, 15909 kPa	1169.7	–
343.14 K, 16918 kPa	1173.5	–
343.14 K, 17921 kPa	1177.2	–
343.14 K, 18924 kPa	1180.9	–
343.14 K, 19929 kPa	1184.4	–
343.14 K, 20931 kPa	1187.8	–
343.14 K, 21941 kPa	1191.3	–
343.14 K, 22943 kPa	1194.6	–
343.14 K, 24955 kPa	1201	–
343.14 K, 25963 kPa	1204	–
343.14 K, 26970 kPa	1207.1	–
343.14 K, 27977 kPa	1210	–
343.14 K, 28983 kPa	1212.9	–
343.14 K, 29990 kPa	1215.8	–
343.14 K, 30998 kPa	1218.7	–
343.14 K, 32004 kPa	1221.4	–
343.14 K, 34007 kPa	1226.7	–
343.15 K, 93.6 kPa	–	0.26
343.15 K, 130.3 kPa	–	0.185
343.15 K, 213.3 kPa	–	0.111
343.15 K, 220.9 kPa	–	0.107
343.15 K, 245.1 kPa	–	0.096
343.15 K, 393.2 kPa	–	0.057
343.15 K, 23946 kPa	1197.8	–
343.15 K, 33006 kPa	1224.1	–
345.15 K, 303.3 kPa	–	0.077
348.15 K, 95 kPa	–	0.26
348.15 K, 132.4 kPa	–	0.185
348.15 K, 216.8 kPa	–	0.111
348.15 K, 224.6 kPa	–	0.107
348.15 K, 249.2 kPa	–	0.096
348.15 K, 400.6 kPa	–	0.057
350.15 K, 308.6 kPa	–	0.077
353.14 K, 33995 kPa	1208	–
353.15 K, 96.4 kPa	–	0.26
353.15 K, 134.4 kPa	–	0.185
353.15 K, 220.3 kPa	–	0.112
353.15 K, 228.3 kPa	–	0.107
353.15 K, 253.3 kPa	–	0.096
353.15 K, 407.8 kPa	–	0.057
353.15 K, 3719 kPa	1080.1	–
353.15 K, 14840 kPa	1141.7	–
353.15 K, 15847 kPa	1146.1	–
353.15 K, 16854 kPa	1150.3	–
353.15 K, 18882 kPa	1158.4	–
353.15 K, 19886 kPa	1162.3	–
353.15 K, 20899 kPa	1166.1	–
353.15 K, 22916 kPa	1173.4	–
353.15 K, 24928 kPa	1180.3	–
353.15 K, 25940 kPa	1183.7	–
353.15 K, 26948 kPa	1186.9	–
353.15 K, 27955 kPa	1190.1	–
353.15 K, 28958 kPa	1193.2	–
353.15 K, 29961 kPa	1196.3	–
353.15 K, 30974 kPa	1199.3	–
353.15 K, 31977 kPa	1202.3	–
353.15 K, 32988 kPa	1205.2	–
353.16 K, 926 kPa	1057.5	–
353.16 K, 1696 kPa	1064.4	–
353.16 K, 2698 kPa	1072.4	–
353.16 K, 4742 kPa	1087.3	–
353.16 K, 5750 kPa	1093.9	–
353.16 K, 6761 kPa	1100.2	–
353.16 K, 7770 kPa	1106.2	–
353.16 K, 8771 kPa	1111.9	–
353.16 K, 9787 kPa	1117.4	–
353.16 K, 10798 kPa	1122.6	–
353.16 K, 11809 kPa	1127.7	–
353.16 K, 12819 kPa	1132.5	–
353.16 K, 13828 kPa	1137.2	–
353.16 K, 17868 kPa	1154.4	–
353.16 K, 21904 kPa	1169.8	–
353.16 K, 23917 kPa	1176.9	–
355.15 K, 313.8 kPa	–	0.077
358.15 K, 97.9 kPa	–	0.26
358.15 K, 136.4 kPa	–	0.186
358.15 K, 223.9 kPa	–	0.112
358.15 K, 232 kPa	–	0.107
358.15 K, 257.4 kPa	–	0.096
358.15 K, 415 kPa	–	0.057
360.15 K, 319.1 kPa	–	0.077
363.13 K, 14901 kPa	1116.7	–
363.14 K, 1456 kPa	1023.9	–
363.14 K, 1771 kPa	1027.2	–
363.14 K, 2776 kPa	1037.2	–
363.14 K, 3803 kPa	1046.4	–
363.14 K, 4829 kPa	1055	–
363.14 K, 5830 kPa	1062.7	–
363.14 K, 6835 kPa	1070	–
363.14 K, 7849 kPa	1076.9	–
363.14 K, 8855 kPa	1083.4	–
363.14 K, 9860 kPa	1089.5	–
363.14 K, 10872 kPa	1095.5	–
363.14 K, 11879 kPa	1101.1	–
363.14 K, 12892 kPa	1106.5	–
363.14 K, 13892 kPa	1111.7	–
363.14 K, 15912 kPa	1121.5	–
363.14 K, 16917 kPa	1126.2	–
363.14 K, 17931 kPa	1130.7	–
363.14 K, 18936 kPa	1135	–
363.14 K, 19943 kPa	1139.3	–
363.14 K, 20949 kPa	1143.4	–
363.14 K, 21954 kPa	1147.4	–
363.14 K, 22956 kPa	1151.2	–
363.14 K, 23961 kPa	1155	–
363.14 K, 25973 kPa	1162.3	–
363.14 K, 26975 kPa	1165.8	–
363.14 K, 27982 kPa	1169.3	–
363.14 K, 29991 kPa	1175.9	–
363.14 K, 31998 kPa	1182.3	–
363.15 K, 99.3 kPa	–	0.26
363.15 K, 138.4 kPa	–	0.186
363.15 K, 227.4 kPa	–	0.112
363.15 K, 235.7 kPa	–	0.107
363.15 K, 261.4 kPa	–	0.096
363.15 K, 422.2 kPa	–	0.057
363.15 K, 24969 kPa	1158.7	–
363.15 K, 28984 kPa	1172.6	–
363.15 K, 30992 kPa	1179.1	–
363.15 K, 33009 kPa	1185.4	–
363.15 K, 34010 kPa	1188.4	–
365.15 K, 324.3 kPa	–	0.077
368.15 K, 100.7 kPa	–	0.26
368.15 K, 140.5 kPa	–	0.186
368.15 K, 231 kPa	–	0.112
368.15 K, 239.3 kPa	–	0.107
368.15 K, 265.5 kPa	–	0.096
368.15 K, 429.3 kPa	–	0.057
370.15 K, 329.4 kPa	–	0.077
373.15 K, 102.2 kPa	–	0.26
373.15 K, 142.5 kPa	–	0.186
373.15 K, 234.6 kPa	–	0.112
373.15 K, 242.9 kPa	–	0.107
373.15 K, 269.6 kPa	–	0.096
373.15 K, 436.3 kPa	–	0.057
375.15 K, 334.6 kPa	–	0.077
